Measurements from US10201565B2, “Gas conditioning” (EndoSAT NV, priority 2010, dated 2019).
≈ marks a conversion by molar mass, not a printed value. Where “and” joins values, the source holds several entries; their conditions need not be identical. Identical values can stand only once.

How the values were obtained:
[1] = tested on: adhesion formation; assay: open abdomen for 60 min with gas flow deep in the pelvis, adhesions; type: in vivo; settings: gas flow of 1 l/min deep in the pelvis; control group with a lesion only
[2] = tested on: human patients; assay: clinical trials of laparoscopy with conditioned pneumoperitoneum; type: in vivo; settings: first trial, deep endometriosis surgery; trial group also 5 mg dexamethasone and hyalobarrier gel, humidification, cooling 30-32° C.
Experimental: In a further set of trials, human patients were treated operatively by laparoscopy using a pneumoperitoneum with 86% CO2, 10% of N2O and 4% of O2 in combination with full humidification and with a temperature maintained at 31° C. to 32° C. when entering the patient (conditioned group). Furthermore the peritoneal cavity was cooled to 30-32° C. using sprinkling of 2 ml/min of saline at room temperature and rinsing was performed using slightly heparinised saline. A comparison was made with a standard treatment, whereby a pneumoperitoneum with 100% CO2 was used (non-conditioned group). Flow rates were between 3 and 10 liter/min. In a first trial, patients were undergoing deep endometriosis surgery. The trial group received in addition 5 mg of dexamethasone and a hyalobarrier gel at the end of the procedure. […] A number of parameters were monitored such as postoperative pain, time to first flatus and time to first stools, and the CO2 resorbtion during pneumoperitoneum. […] In both trials CO2 resorbtion during surgery, postoperative pain assessed by VAS scales and pain killer intake and time to first flatus and time to first stools were monitored.
In both trials post operative pain was evaluated at 3 hours, 12 hours and daily for 4 days after surgery using a VAS scale (Visual Analog Pain Scale) and using the amount of pain killer intake. […]

[3] = tested on: adhesion formation; settings: 60 min pneumoperitoneum, 15 mmHg, humidified, 37° C.; scored one week later; average of four sites; listed as pure CO2
[4] = cited from earlier work; for solubilities: unit inferred
[5] = tested on: adhesion formation; settings: laparoscopic mouse model, background; cited from earlier work

Structure (SMILES)	adhesions after 60 min open abdomen [1]	adhesion formation checked by repeat laparoscopy [2]	quantitative adhesion score (proportion of lesion covered by adhesions) [3]	total adhesion score (sum of extent, type, tenacity) [3]	solubility in water [4]	solubilities [4]	adhesion formation [5]
O=C=O [CO2, carbon dioxide]	decrease of these adhesions	severe adhesions	70±10% and 74±9% and 77±9%	30±4 and 31±4 and 32±4	1450 µg/mL (≈ 32.9 mM)	1.45 g/L	increase adhesions five fold
[N-]=[N+]=O [N2O, nitrous oxide]					1500 µg/mL (≈ 34.1 mM)	1.5 g/L	
O=O [Oxygen, oxygen]					39.1 µg/mL (≈ 1.22 mM)	0.0232 g/L	
